Measurements from ChEMBL document CHEMBL4610120, “New Broad-Spectrum Antibiotics Containing a Pyrrolobenzodiazepine Ring with Activity against Multidrug-Resistant Gram-Negative Bacteria” (J Med Chem, 2020).
Converted amounts (≈) assume the structure as drawn. The source made the active and inactive calls. No cut-off for these calls is given here.

Legend:
[1] = Selectivity ratio of cytotoxicity against human WI38 cells to MIC for multidrug-resistant Pseudomonas aeruginosa NCTC 13437; assay type: toxicity, cell-based
[2] = Selectivity ratio of cytotoxicity against human WI38 cells to MIC for methicillin resistant Staphylococcus aureus NCTC 13616; assay type: toxicity, cell-based
[3] = Selectivity ratio of cytotoxicity against human WI38 cells to MIC for Acinetobacter baumannii ATCC 17978; assay type: toxicity, cell-based
Enterococcus faecalis [4] = assay: Antibacterial activity against vancomycin sensitive Enterococcus faecalis NCTC 775 by microdilution broth method; assay type: functional
Acinetobacter baumannii [5] = assay: Antimicrobial activity against multidrug-resistant Acinetobacter baumannii AYE by microdilution broth method; assay type: functional
Acinetobacter baumannii [6] = assay: Antimicrobial activity against Acinetobacter baumannii ATCC 17978 by microdilution broth method; assay type: functional
Staphylococcus aureus [7] = assay: Antibacterial activity against methicillin resistant Staphylococcus aureus NCTC 13616 by microdilution broth method; assay type: functional
Klebsiella pneumoniae [8] = assay: Antimicrobial activity against multidrug-resistant Klebsiella pneumoniae NCTC 13368 by microdilution broth method; assay type: functional
[9] = Selectivity ratio of cytotoxicity against human WI38 cells to MIC for vancomycin sensitive Enterococcus faecalis NCTC 775; assay type: toxicity, cell-based
Pseudomonas aeruginosa [10] = assay: Antimicrobial activity against Pseudomonas aeruginosa PAO1 by microdilution broth method; assay type: functional
Pseudomonas aeruginosa [11] = assay: Antimicrobial activity against multidrug-resistant Pseudomonas aeruginosa NCTC 13437 by microdilution broth method; assay type: functional
[12] = Selectivity ratio of cytotoxicity against human WI38 cells to MIC for Pseudomonas aeruginosa PAO1; assay type: toxicity, cell-based
[13] = Selectivity ratio of cytotoxicity against human WI38 cells to MIC for vancomycin resistant Enterococcus faecium NCTC 12204; assay type: toxicity, cell-based
[14] = Selectivity ratio of cytotoxicity against human WI38 cells to MIC for methicillin sensitive Staphylococcus aureus NCTC 6571; assay type: toxicity, cell-based
[15] = Cytotoxicity against human WI38 cells assessed as cell viability at 20 uM measured after 24 hrs by MTT assay relative to control; assay type: cell-based, WI-38; conditions: read-out: Activity
[16] = Selectivity ratio of cytotoxicity against human WI38 cells to MIC for multidrug-resistant Acinetobacter baumannii AYE; assay type: toxicity, cell-based
Klebsiella pneumoniae [17] = assay: Antimicrobial activity against Klebsiella pneumoniae M6 by microdilution broth method; assay type: functional
Enterococcus faecium = assay: Antibacterial activity against vancomycin resistant Enterococcus faecium NCTC 12204 by microdilution broth method; assay type: functional
[18] = Selectivity ratio of cytotoxicity against human WI38 cells to MIC for multidrug-resistant Klebsiella pneumoniae NCTC 13368; assay type: toxicity, cell-based
[19] = Selectivity ratio of cytotoxicity against human WI38 cells to MIC for vancomycin resistant Enterococcus faecalis NCTC 12201; assay type: toxicity, cell-based
DNA [20] = assay: Stabilization of 5'-FAM-TAT-AGA-TAT-AGA-TAT-TTT-ATA-TCT-ATA-TCT-ATA-3'-TAMRA DNA (unknown origin) assessed as reduction in change in melting temperature at 1:1 to 5:1 ligand to DNA ratio measured after 3 hrs by FRET-based assay relative to control; assay type: ADME, nucleic-acid assay
DNA [21] = assay: Stabilization of 5'-FAM-TAT-ATA-TAG-ATA-TTT-TTT-TAT-CTA-TAT-ATA-3'-TAMRA DNA (unknown origin) assessed as reduction in change in melting temperature at 1:1 to 5:1 ligand to DNA ratio measured after 3 hrs by FRET-based assay relative to control; assay type: ADME, nucleic-acid assay
Staphylococcus aureus [22] = assay: Antibacterial activity against methicillin sensitive Staphylococcus aureus NCTC 6571 by microdilution broth method; assay type: functional
[23] = Selectivity ratio of cytotoxicity against human WI38 cells to MIC for Klebsiella pneumoniae M6; assay type: toxicity, cell-based
Staphylococcus aureus [24] = assay: Antibacterial activity against methicillin resistant Staphylococcus aureus NCTC 13277 by microdilution broth method; assay type: functional
[25] = Selectivity ratio of cytotoxicity against human WI38 cells to MIC for methicillin resistant Staphylococcus aureus NCTC 13277; assay type: toxicity, cell-based
Enterococcus faecalis [26] = assay: Antibacterial activity against vancomycin resistant Enterococcus faecalis NCTC 12201 by microdilution broth method; assay type: functional
[27] = molecular target: T1, Protein RecA (Escherichia coli K-12) (UniProt P0A7G6); assay: Induction of Escherichia coli K12 MG1655 recA promotor measured at 30 mins interval for 20 hrs by fluorescence assay relative to control; conditions: Escherichia coli str. K-12 substr. MG1655
T1 sequence (whole entry): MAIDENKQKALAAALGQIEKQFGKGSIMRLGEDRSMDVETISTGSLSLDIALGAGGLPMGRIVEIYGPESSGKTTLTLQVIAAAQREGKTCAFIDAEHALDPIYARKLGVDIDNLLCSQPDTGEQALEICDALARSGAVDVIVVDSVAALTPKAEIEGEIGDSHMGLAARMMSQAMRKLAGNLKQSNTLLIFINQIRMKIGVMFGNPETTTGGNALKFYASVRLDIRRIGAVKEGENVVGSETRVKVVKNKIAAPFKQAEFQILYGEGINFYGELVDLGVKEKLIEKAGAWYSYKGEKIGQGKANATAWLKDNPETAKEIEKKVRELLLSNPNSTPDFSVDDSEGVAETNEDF

[28] = molecular target: T2, LexA repressor (Escherichia coli) (UniProt P0A7C2); assay: Induction of Escherichia coli K12 MG1655 lexA promotor measured at 30 mins interval for 20 hrs by fluorescence assay relative to control; conditions: Escherichia coli str. K-12 substr. MG1655
T2 sequence (whole entry): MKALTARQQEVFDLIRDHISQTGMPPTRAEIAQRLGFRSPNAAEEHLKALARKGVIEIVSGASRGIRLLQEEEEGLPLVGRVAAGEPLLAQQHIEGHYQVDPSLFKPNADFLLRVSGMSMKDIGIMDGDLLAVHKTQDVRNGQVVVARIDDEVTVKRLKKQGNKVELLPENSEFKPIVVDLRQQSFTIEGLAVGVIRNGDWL

[29] = molecular target: T3, Cell division inhibitor SulA (Escherichia coli K-12) (UniProt P0AFZ5); assay: Induction of Escherichia coli K12 MG1655 sulA promotor measured at 30 mins interval for 20 hrs by fluorescence assay relative to control; conditions: Escherichia coli str. K-12 substr. MG1655
T3 sequence (whole entry): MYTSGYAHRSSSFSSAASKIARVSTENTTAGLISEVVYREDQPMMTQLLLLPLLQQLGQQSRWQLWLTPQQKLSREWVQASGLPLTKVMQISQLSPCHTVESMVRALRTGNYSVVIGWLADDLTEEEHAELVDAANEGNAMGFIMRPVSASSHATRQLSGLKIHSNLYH

[30] = molecular target: T4, DNA repair protein RecN (Escherichia coli) (UniProt P05824); assay: Induction of Escherichia coli K12 MG1655 recN promotor measured at 30 mins interval for 20 hrs by fluorescence assay relative to control; conditions: Escherichia coli str. K-12 substr. MG1655
T4 sequence (whole entry): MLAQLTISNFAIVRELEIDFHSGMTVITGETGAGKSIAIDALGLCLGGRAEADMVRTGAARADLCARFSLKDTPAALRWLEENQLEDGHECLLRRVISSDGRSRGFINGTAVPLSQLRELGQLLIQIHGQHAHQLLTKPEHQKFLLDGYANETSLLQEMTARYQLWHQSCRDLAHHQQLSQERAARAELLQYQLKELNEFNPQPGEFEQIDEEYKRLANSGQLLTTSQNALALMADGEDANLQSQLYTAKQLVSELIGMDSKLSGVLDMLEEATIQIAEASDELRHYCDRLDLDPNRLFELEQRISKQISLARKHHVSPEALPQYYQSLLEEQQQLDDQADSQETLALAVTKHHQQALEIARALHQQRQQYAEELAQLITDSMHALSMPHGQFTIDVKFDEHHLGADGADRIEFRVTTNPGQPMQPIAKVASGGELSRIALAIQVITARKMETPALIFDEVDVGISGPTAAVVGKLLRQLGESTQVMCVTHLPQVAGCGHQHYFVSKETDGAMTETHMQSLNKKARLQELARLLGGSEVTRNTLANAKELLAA

Structure (SMILES)	MIC (Enterococcus faecalis [4]) [µg/mL]	MIC (Acinetobacter baumannii [5]) [µg/mL]	MIC (Acinetobacter baumannii [6]) [µg/mL]	MIC (Staphylococcus aureus [7]) [µg/mL]	MIC (Klebsiella pneumoniae [8]) [µg/mL]	MIC (Pseudomonas aeruginosa [10]) [µg/mL]	MIC (Pseudomonas aeruginosa [11]) [µg/mL]	viability at 24 h, 20 µM [15] [%]	MIC (Klebsiella pneumoniae [17]) [µg/mL]	MIC (Enterococcus faecium) [µg/mL]	fold change (FC) (DNA [20])	fold change (FC) (DNA [21])	MIC (Staphylococcus aureus [22]) [µg/mL]	MIC (Staphylococcus aureus [24]) [µg/mL]	MIC (Enterococcus faecalis [26]) [µg/mL]	fold change (FC) [27]	fold change (FC) [28]	fold change (FC) [29]	fold change (FC) [30]	Activity [27]	other results
COc1cc2c(cc1OCCCC(=O)Nc1cc(C(=O)Nc3ccc(-c4cc(C(=O)N5CCSCC5)n(C)c4)cc3)n(C)c1)N=C[C@@H]1CCCN1C2=O	≤ 0.03	2 (≈ 2.71 µM)	2 (≈ 2.71 µM)	≤ 0.03	> 32	> 32	> 32	> 85	4 (≈ 5.42 µM)	≤ 0.03	3 to 4	3 to 4	≤ 0.03	0.06 (≈ 0.0813 µM)	≤ 0.03						selectivity ratio [1]: 10; selectivity ratio [2]: 100; selectivity ratio [3]: 10; selectivity ratio [9]: 100; selectivity ratio [12]: 10; selectivity ratio [13]: 100; selectivity ratio [14]: 100; selectivity ratio [16]: 10; selectivity ratio [18]: 10; selectivity ratio [19]: 100; selectivity ratio [23]: 10; selectivity ratio [25]: 100
COc1cc2c(cc1OCCCC(=O)Nc1cc(C(=O)Nc3ccc(-c4cc(C(=O)N5CCCCC5)n(C)c4)cc3)n(C)c1)N=C[C@@H]1CCCN1C2=O	0.125 (≈ 0.174 µM)	2 (≈ 2.78 µM)	2 (≈ 2.78 µM)	0.06 (≈ 0.0834 µM)	> 128	> 128	> 128	> 85	16 (≈ 22.2 µM)	≤ 0.03	3 to 4	3 to 4	≤ 0.03	0.125 (≈ 0.174 µM)	≤ 0.03						selectivity ratio [1]: 10; selectivity ratio [2]: 100; selectivity ratio [3]: 10; selectivity ratio [9]: 100; selectivity ratio [12]: 10; selectivity ratio [13]: 100; selectivity ratio [14]: 100; selectivity ratio [16]: 10; selectivity ratio [18]: 10; selectivity ratio [19]: 100; selectivity ratio [23]: 10; selectivity ratio [25]: 100
CCn1cc(C(=O)O)c(=O)c2cc(F)c(N3CCNCC3)cc21																20 to 35	5 to 13	17 to 41	14 to 32		
C[C@H]1c2cccc(O)c2C(=O)C2=C(O)[C@]3(O)C(=O)C(C(N)=O)=C(O)[C@@H](N(C)C)[C@@H]3[C@@H](O)[C@@H]21																				inactive	Activity [28]: inactive; Activity [29]: inactive; Activity [30]: inactive
CO[C@H]1/C=C/O[C@@]2(C)Oc3c(C)c(O)c4c(O)c(c(/C=N/N5CCN(C)CC5)c(O)c4c3C2=O)NC(=O)/C(C)=C\C=C\[C@H](C)[C@H](O)[C@@H](C)[C@@H](O)[C@@H](C)[C@H](OC(C)=O)[C@@H]1C																				inactive	Activity [28]: inactive; Activity [29]: inactive; Activity [30]: inactive
CC1(C)S[C@@H]2[C@H](NC(=O)[C@H](N)c3ccccc3)C(=O)N2[C@H]1C(=O)O																				inactive	Activity [28]: inactive; Activity [29]: inactive; Activity [30]: inactive
CO[C@@H]1[C@@H](OC(N)=O)[C@@H](O)[C@H](Oc2ccc3c(O)c(NC(=O)c4ccc(O)c(CC=C(C)C)c4)c(=O)oc3c2C)OC1(C)C																20 to 35	5 to 13	17 to 41	14 to 32		
COC(=O)c1cc(NC(=O)c2cc(NC(=O)CCCOc3cc4c(cc3OC)C(=O)N3CCC[C@H]3C=N4)cn2C)cn1C	1 (≈ 1.69 µM)	128 (≈ 217 µM)	128 (≈ 217 µM)	1 (≈ 1.69 µM)	> 128	128 (≈ 217 µM)	> 128	35	> 128	0.5 (≈ 0.847 µM)	3 to 4	3 to 4	0.5 (≈ 0.847 µM)	2 (≈ 3.39 µM)	0.5 (≈ 0.847 µM)						
C[C@H]1COc2c(N3CCN(C)CC3)c(F)cc3c(=O)c(C(=O)O)cn1c23																20 to 35	5 to 13	17 to 41	14 to 32		
COc1c(N2C[C@@H]3CCCN[C@@H]3C2)c(F)cc2c(=O)c(C(=O)O)cn(C3CC3)c12																20 to 35	5 to 13	17 to 41	14 to 32		
